# Measurements taken from paper PMC7125190, “Native/citrullinated LL37-specific T-cells help autoantibody production in Systemic Lupus Erythematosus” (Scientific Reports, 2020).
# What was measured:
# [1] = system: serum antibodies (anti-native LL37/anti-cit-LL37); assay: ELISA for autoantibody detection in sera; type: binding, human; conditions: for Antibody reactivity of control disease sera compared to SLE: psoriasis, RA, SSc and UC sera
# Procedure: (§1) Anti-native/cit-LL37, other antigen antibodies (anti-DNA and anti-RNA), and total anti-human IgG were measured by ELISA as described. Briefly, 96-well flat-bottom plates (Non-Binding surface polystyrene, Corning, USA) are coated with 2 μg/mL of native LL37/cit-LL37 or control proteins or human DNA or human RNA[9] or anti-human IgG antibody (Sigma) in carbonate buffer (0.1 M NaHCHO3, pH 9) for 2 hours (or over night) and washed four times with PBS 0.1% Tween-20. This washing buffer was used for washing at all steps. The blocking buffer containing 2% bovine serum albumin (BSA, Sigma) in PBS was used for at least 1 hour (or over night) to saturate unspecific binding sites. After washing, sera were diluted at various concentrations (usually 1:100 or 1:200) in PBS 2% BSA (cell culture supernatants were diluted 1:2, 1:4 or 1:10) followed by 1 hour incubation with a horseradish peroxidase–conjugated (HRP) goat anti-human IgG (Sigma-Aldrich), diluted 1:10,000 in PBS. The color was developed for 5 minutes with 3,3’,5,5’-tetramethylbenzidine (TMB) substrate (Sigma-Aldrich). The reaction was stopped by adding 50 μl of 2 N H2SO4, and absorbance determined at 450 nm with a reference wavelength of 540 nm. Anti-dsDNA in sera of lupus patients were detected by the standard clinical test Kallestad Crithidia luciliae Complete Kits for detection and semi-quantitation of autoantibodies to native DNA (nDNA) antigens by indirect fluorescence antibody (IFA) procedure. ELISA for detection of anti-tetanus antibodies (anti-TT) was from Abnova (Taiwan).
# [2] = system: PBMCs; assay: LL37-specific T-cell help: autoantibodies in PBMC culture supernatants by ELISA; type: cell-based, human; conditions: for anti-LL37/anti-cit-LL37 antibodies in culture supernatants: SLE PBMCs, 7 days
# Procedure: as §1
# Peptide-MHC-tetramer staining of T-cell lines/clones and blood T-cells
# Peptide-MHC-tetramers (Table S4) were from ProImmune, (UK), TC Metrix, (CH), Benaroya, (USA) and ImmunAware (Denmark). Staining was performed for 40 minutes at 37°C, followed by staining for CD4 (4°C, 20 minutes). Before flow cytometry-acquisition, cells were labelled with PercP-conjugated 7-AAD to exclude dead cells.
# LL37 specific T-cell help for production of autoantibodies
# We cultured patient PBMCs with LL37 or control antigens and low doses of hrIL-2 (added at day 6, 10U/mL), and we detected appearance of autoantibodies in the culture supernatants by ELISA at various time points (from 7-to 10 days and, when needed, after a second stimulation with autologous PBMCs and antigen). In parallel, we monitored appearance of markers typical of B-cells/plasma cells (CD20, CD27, CD38, CD138) in the CD3neg cells by flow cytometry.
# Immunohistochemistry and laser scanner confocal microscopy (LSM)
# We performed staining on […] paraffin or frozen sections of human lupus erythematosus skin specimens obtained from CHUV, Dept. of Dermatology. Staining with anti-cit-LL37 Mabs was performed using the antibodies Mab142 and Mab137 at 1:40 dilution, followed by incubation with a […] (Abcam). HRP and DAB (DAKO) were used to develop the color. Nuclear staining was performed with Mayer’s haematoxylin.
# To visualize NETs, we seeded neutrophils on coverslips pre-treated with polylysine and stimulated them with various stimuli to induce release of the NETs. After 3 hours, cells were gently washed and stained with anti-CD15-PE or biotinylated polyclonal rabbit anti-LL37 antibodies (Innovagen), followed by addition of AlexaFluor 488-streptavidin. Frozen or paraffin-included SLE renal biopsies, obtained from Policlinico Umberto I, Rome, IT or CHUV Lausanne, CH, were stained, after saturation with blocking buffer (PBS, 0.05% tween 20, 4% BSA) for 1 hour at room temperature. Bopsies in paraffin were stained after de-paraffination in xilene (5 minutes, two times), followed by passages in: absolute ethanol (3 minutes), 95% ethanol in water (3 minutes), 80% ethanol in water (3 minutes), 70% ethanol in water (3 minutes), and antigen retrieval (5 minutes at […]
# [3] = system: CD4 T-cells in PBMC cultures; assay: TFH/Th17 marker expression by flow cytometry (CXCR5, Bcl-6, Ror-γt); type: cell-based, human; conditions: for Bcl-6 expression / Ror-ɣt expression: CD38hi T-cells, 48 hours; for Bcl-6 expression: SLE but not psoriasis; for Ror-ɣt expression: both SLE and psoriasis; for CXCR5 expression by proliferating T-cells: SLE (but not in psoriasis)
# Procedure: PBMCs were purified, from EDTA-treated blood, on Ficoll-Hypaque (Pharmacia Fine Chemicals, Uppsala, Sweden) were incubated (10^5 cells/well) in 96-well-flat-bottom-microplates (BD) in T cell-medium (RPMI 1640, 10% heat-inactivated human serum, HS, Gibco), 2 mM L-glutamine, 10 U/mL penicillin, and 100 μg/mL streptomycin), with/without peptides. We performed assays on fresh cells, within 1-to-3 hours from collection, or on PBMCs frozen in 90% FCS-10%DMSO, whose viability we assessed by Trypan blue exclusion, at inverted microscope. Recovery of live cells was between 65 and 85 % of the frozen number. At day3 and 5, BrdU was added (1 μg/mL). BrdU-incorporation was detected by APC-labeled anti-BrdU antibody (BD Pharmingen), after surface staining by flow cytometry. Internal control for T-cell viability and proliferation was PHA treatment (2 μg/mL). SI for proliferation was calculated by dividing percent of BrdU-staining in the presence of each peptide used to stimulate cells by percent of BrdU-staining in the absence of peptide stimulation. SI for proliferation was considered positive when>3. This cut-off was obtained by calculating the mean+2DS [1.5 + 2 (0.6)] (of the stimulation indexes calculated as above) of the proliferation of HD.
# Basal % of proliferation was set using, as reference, an isotype matched antibody staining (APC-isotype control and) and never exceed 5% of cell proliferation value (background proliferation).
# Assays were repeated twice with each patient. In rare cases in which background proliferation exceed antigen-specific proliferation the assay was repeated three times. Concomitant phenotype analysis of LL37-responder T-cells included staining for CD4, CD8, CXCR5, PD1, ICOS, CCR6. Ror-ɣt and Bcl-6 were measured by intracellular staining and flow cytometry, after 48 hours culture with LL37 or control antigen, and were analyzed on CD38highCD4 T-cells. […]
# [4] = eight SLE patients with T-cell follow-up, successful standard therapy
# [5] = three SLE patients unresponsive to treatment
# [6] = twenty-one SLE patients responding to treatment, 6-to-36 months
Substance,"SLE patients with antibody reactivity ([1]; SLE sera, twenty-one (native LL37) and eighteen (cit-LL37) of 40) [%]","Antibody reactivity over time [1, 4]",Antibody reactivity of control disease sera compared to SLE [1],"Antibody reactivity over time [1, 5]","Antibody reactivity over time [1, 6]","anti-LL37/cit-LL37 antibody production ([2]; PBMCs of psoriasis patients whose T-cells proliferate to LL37, and HD PBMCs)",anti-LL37/anti-cit-LL37 antibodies in culture supernatants [2],anti-HNPs and anti-TT antibodies ([2]; SLE cultures),"anti-DNA- and RNA-antibody reactivity ([2]; SLE cultures, sequential stimulation with autologous PBMCs and native LL37)",Bcl-6 expression [3],Ror-ɣt expression [3],CXCR5 expression by proliferating T-cells [3]
"LLGDFFRKSKEKIGKEFKRIVQRIKDFLRNLVPRTES [LL37, native LL37, antimicrobial peptide, 37 aa]",53,significantly declined,significantly weaker,increased,declined in parallel with SLEDAI reduction,did not lead to significant anti-LL37/cit-LL37 antibody production,became apparent in culture supernatants,did not increase,became also detectable,could up-regulate Bcl-6,could upregulate Ror-ɣt expression,significant up-regulation
"LLGDFFR(cit)KSKEKIGKEFKR(cit)IVQR(cit)IKDFLR(cit)NLVPR(cit)TES [cit-LL37, citrullinated LL37 (citrullinated at all five arginin positions)]",,significantly declined,significantly weaker,increased,declined in parallel with SLEDAI reduction,,became apparent in culture supernatants,did not increase,,could up-regulate Bcl-6,could upregulate Ror-ɣt expression,significant up-regulation
